PubChem BioAssay (NCI)
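In this assay, cells in 96-well plates receive the compound at five concentrations for 48 hours. Endpoints are linearly interpolated between the surrounding concentrations. GI50 is the concentration that inhibits growth by half. The concentration for full growth arrest is given as TGI.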

Experiments:
Experiment in all cases: DTP human tumour cell line panel, 48 h
[1] = system: A549 NSCLC
[2] = system: NCI-H460 lung
[3] = system: UO-31 renal
[4] = system: COLO 205 colon
[5] = system: LOX IMVI melanoma
[6] = system: 786-0 renal
[7] = system: OVCAR-3 ovarian
[8] = system: SK-MEL-2 melanoma
[9] = system: HCT-15 colon
[10] = system: HOP-62 NSCLC
[11] = system: U251 CNS
[12] = system: TK-10 renal
[13] = system: NCI-H522 lung
[14] = system: MCF7 breast
[15] = system: SF-295 CNS
[16] = system: SNB-19 CNS
[17] = system: OVCAR-8 ovarian
[18] = system: SK-MEL-5 melanoma
[19] = system: SR leukemia
[20] = system: OVCAR-5 ovarian
[21] = system: IGROV1 ovarian
[22] = system: CCRF-CEM leukemia
[23] = system: CAKI-1 renal
[24] = system: UACC-257 melanoma
[25] = system: DU-145 prostate
[26] = system: NCI-H226 lung
[27] = system: PC-3 prostate
[28] = system: SF-268 CNS
[29] = system: SK-MEL-28 melanoma
[30] = system: K-562 leukemia
[31] = system: UACC-62 melanoma
[32] = system: BT-549 breast
[33] = system: EKVX NSCLC
[34] = system: SNB-75 CNS
[35] = system: HL-60(TB) leukemia
[36] = system: HT29 colon
[37] = system: NCI-H23 lung
[38] = system: NCI/ADR-RES ovarian
[39] = system: M14 melanoma
[40] = system: HOP-92 NSCLC
[41] = system: KM12 colon
[42] = system: RXF 393 renal
[43] = system: OVCAR-4 ovarian
[44] = system: MDA-MB-231 breast
[45] = system: SW-620 colon
[46] = system: MDA-MB-435
[47] = system: ACHN renal
[48] = system: HCC-2998 colon
[49] = system: HS 578T breast
[50] = system: MOLT-4 leukemia
[51] = system: HCT-116 colon
[52] = system: SN12C renal
[53] = system: A498 renal
[54] = system: MALME-3M melanoma
[55] = system: SK-OV-3 ovarian
[56] = system: SF-539 CNS
[57] = system: RPMI-8226 leukemia
[58] = system: T-47D breast

`C[C@H]1[C@H](C)CC[C@]2(C(=O)O)CC[C@]3(C)C(=CC[C@@H]4[C@@]5(C)C/C(=C/c6cccnc6)[C@H](O)C(C)(C)[C@@H]5CC[C@]43C)[C@H]12` gave a GI50 [1] of 5.27 µM, a TGI [1] of 62.4 µM and a GI50 [2] of 8.88 µM. It also gave a TGI [2] of 26.6 µM, a GI50 [3] of 12.5 µM and a TGI [3] of 26.4 µM. For the same compound, the GI50 [4] was 14.6 µM, the TGI [4] was 32.4 µM and the GI50 [5] was 13.4 µM. For the same compound, the TGI [5] was 28.1 µM, the GI50 [6] was 25.9 µM and the TGI [6] was over 100 µM. For the same compound, the GI50 [7] was 13.5 µM, the TGI [7] was 31.1 µM and the GI50 [8] was 13.9 µM. The TGI [8] was 44.4 µM, the GI50 [9] was 10.7 µM and the TGI [9] was 52 µM. It also gave a GI50 [10] of 16.4 µM, a TGI [10] of 55.6 µM and a GI50 [11] of 10.9 µM. For the same compound, the TGI [11] was 27.8 µM, the GI50 [12] was 28.4 µM and the TGI [12] was over 100 µM. For the same compound, the GI50 [13] was 13 µM, the TGI [13] was 94.3 µM and the GI50 [14] was 12.1 µM. The TGI [14] was over 100 µM, the GI50 [15] was 4.83 µM and the TGI [15] was 25.8 µM. For the same compound, the GI50 [16] was 20.5 µM, the TGI [16] was over 100 µM and the GI50 [17] was 20.5 µM. The TGI [17] was over 100 µM, the GI50 [18] was 13.7 µM and the TGI [18] was 35.7 µM. The GI50 [19] was 20.7 µM, the TGI [19] was 82.8 µM and the GI50 [20] was 20.9 µM. It also gave a TGI [20] of 64.8 µM, a GI50 [21] of 26.4 µM and a TGI [21] of over 100 µM. For the same compound, the GI50 [22] was 6.43 µM, the TGI [22] was 40.8 µM and the GI50 [23] was 17.8 µM. It also gave a TGI [23] of over 100 µM, a GI50 [24] of 21 µM and a TGI [24] of 81.2 µM. The GI50 [25] was 15.4 µM, the TGI [25] was over 100 µM and the GI50 [26] was 15.3 µM. It also gave a TGI [26] of 56.8 µM, a GI50 [27] of 6.35 µM and a TGI [27] of over 100 µM. It also gave a GI50 [28] of 24.3 µM, a TGI [28] of over 100 µM and a GI50 [29] of 13.7 µM. The TGI [29] was 34.6 µM, the GI50 [30] was 6.79 µM and the TGI [30] was over 100 µM. The GI50 [31] was 11.7 µM, the TGI [31] was 35 µM and the GI50 [32] was 18.3 µM. For the same compound, the TGI [32] was over 100 µM, the GI50 [33] was 13.3 µM and the TGI [33] was 87.6 µM. It also gave a GI50 [34] of 28.6 µM, a TGI [34] of over 100 µM and a GI50 [35] of 9.83 µM. For the same compound, the TGI [35] was 32.6 µM, the GI50 [36] was 14.4 µM and the TGI [36] was 33.9 µM. It also gave a GI50 [37] of 17.4 µM, a TGI [37] of over 100 µM and a GI50 [38] of 18.5 µM. The TGI [38] was 68.5 µM, the GI50 [39] was 17.7 µM and the TGI [39] was 49 µM. For the same compound, the GI50 [40] was 13.8 µM, the TGI [40] was 67.7 µM and the GI50 [41] was 7.61 µM. The TGI [41] was 36.1 µM, the GI50 [42] was 13.7 µM and the TGI [42] was 36.6 µM. It also gave a GI50 [43] of 43 µM, a TGI [43] of over 100 µM and a GI50 [44] of 22.5 µM. For the same compound, the TGI [44] was 72.1 µM, the GI50 [45] was 20.9 µM and the TGI [45] was over 100 µM. The GI50 [46] was 27.6 µM, the TGI [46] was over 100 µM and the GI50 [47] was 10.2 µM. It also gave a TGI [47] of over 100 µM, a GI50 [48] of 15.7 µM and a TGI [48] of 43.5 µM. The GI50 [49] was 28.8 µM, the TGI [49] was over 100 µM and the GI50 [50] was 8.74 µM. The TGI [50] was 58.2 µM, the GI50 [51] was 10.7 µM and the TGI [51] was 26.8 µM. For the same compound, the GI50 [52] was 18.1 µM, the TGI [52] was 97.3 µM and the GI50 [53] was over 100 µM. The TGI [53] was over 100 µM, the GI50 [54] was 18.3 µM and the TGI [54] was 51.2 µM. It also gave a GI50 [55] of 19.9 µM, a TGI [55] of over 100 µM and a GI50 [56] of 15.6 µM. The TGI [56] was 36.3 µM, the GI50 [57] was 6.03 µM and the TGI [57] was 41.5 µM. It also gave a GI50 [58] of 9.88 µM and a TGI [58] of over 100 µM.
